Assay [1] has as its system TNF-α production in PBMC stimulated with LPS. As to the kind of experiment: Inhibition of TNF-α production in PBMCs stimulated with LPS (ELISA). The conditions noted are these: Homo sapiens, average of 2 independent experiments (donors), LPS 1 ng/mL, 24 h, read-out: IC50/μM (av.) PMBC-LPS/TNF-α. It is filed as cell-based. The protocol: PBMC isolation. Human peripheral blood mononuclear cells (PBMCs) were isolated from buffy coats obtained from healthy adult volunteers. The buffy coats were diluted with sterile PBS and layered over Lymphoprep (Axis-Shield Diagnostics, Dundee, UK). Tubes were centrifuged for 35 min at 400× g (RT; acceleration and break turned off). After centrifugation, the mononuclear ring was collected, transferred into a new 50 mL tube, and washed thrice with sterile PBS. The remaining erythrocytes were lysed with an isotonic solution of ammonium chloride (150 mM; Kemika, Zagreb, Croatia).
Treatment and stimulation of human PBMCs. Immediately after isolation, 200,000 PBMCs were seeded per well of a 96-well plate. Compounds were dissolved in 100% dimethyl sulfoxide (DMSO, Sigma, Darmstadt, Germany), and serial dilutions in DMSO were prepared and added to cells, with starting concentration for test compounds 100 µM or 1 µM for reference dexamethasone. […] Plates were incubated for 24 h at 37 °C, 5% CO2, followed by the collection of supernatants for measurement of TNF-α and cell viability assessment.
Enzyme-linked immunosorbent assay (ELISA) and cytotoxicity analysis. TNFα concentration in PBMC supernatants was measured using ELISA assay, using antibodies obtained from BD Pharmingen (San Diego, CA, USA) and recombinant human TNFα protein (standard) from R&D Systems (Minneapolis, MN, USA). Lumitrac 600 384-well plates (Greiner Bio-One, Kremsmünster, Austria) were coated overnight with 1 µg/mL of TNFα capture antibody diluted in phosphate-buffered saline (PBS, Thermo Fisher Scientific, Waltham, MA, USA), followed by a washing step and blocking with 5% sucrose in assay diluent (1% bovine serum albumin (BSA; Sigma, Darmstadt, Germany) in PBS) for 4 h at RT. After the blocking step, the plates were washed, and samples/standards were added to the plates. After overnight incubation at 4 °C, detection antibodies diluted in assay diluent to a final concentration of 250 ng/mL were added. Following incubation for 2 h at RT, plates were washed, and streptavidin-HRP (Thermo Fisher Scientific, Waltham, MA, USA) solution was added (final concentration 500 ng/mL, prepared in assay diluent). Plates were incubated for 20 min at RT in the dark and washed, followed by adding Luminol substrate (Sigma, Darmstadt, Germany). […] To evaluate cell viability, Cell Titer Glo reagent was used (Promega, Madison, WI, USA) according to the manufacturer’s instructions.
Data analysis. For ELISA, the blank was subtracted from measured RLU values, and TNFα concentrations in samples were interpolated from the standard curve. QC parameters for each plate were calculated from raw data. […] For viability assessment, the average luminescence value was calculated from all trigger vehicle samples, and the percentage of vehicle value was calculated for all samples. The compound effect was considered cytotoxic if reduction from a vehicle was ≥20%, and these concentrations were excluded from further analysis. IC50 values of tested compounds were determined in GraphPad Prism 9 software using nonlinear regression curve fit (four parameters, with variable slope).

Assay [2] concerns the target AChE (Electrophorus electricus, UniProt O42275). Nature of the assay: biochemical. The conditions noted are these: for inhibition at 500 µM: at maximal concentration tested 500 μM; for inhibition at 250 µM: at maximal concentration tested 250 μM; for selectivity AChE over BChE: from IC50 values of Table 2. The format is biochemical.
For assay [3], the target named is BChE (Equus caballus, UniProt P81908). As to the kind of experiment: biochemical. The format is biochemical. The conditions noted are these: for inhibition at 500 µM / inhibition at 250 µM: read-out: BChE % Inhibition.
Chain of BChE (P81908 whole entry): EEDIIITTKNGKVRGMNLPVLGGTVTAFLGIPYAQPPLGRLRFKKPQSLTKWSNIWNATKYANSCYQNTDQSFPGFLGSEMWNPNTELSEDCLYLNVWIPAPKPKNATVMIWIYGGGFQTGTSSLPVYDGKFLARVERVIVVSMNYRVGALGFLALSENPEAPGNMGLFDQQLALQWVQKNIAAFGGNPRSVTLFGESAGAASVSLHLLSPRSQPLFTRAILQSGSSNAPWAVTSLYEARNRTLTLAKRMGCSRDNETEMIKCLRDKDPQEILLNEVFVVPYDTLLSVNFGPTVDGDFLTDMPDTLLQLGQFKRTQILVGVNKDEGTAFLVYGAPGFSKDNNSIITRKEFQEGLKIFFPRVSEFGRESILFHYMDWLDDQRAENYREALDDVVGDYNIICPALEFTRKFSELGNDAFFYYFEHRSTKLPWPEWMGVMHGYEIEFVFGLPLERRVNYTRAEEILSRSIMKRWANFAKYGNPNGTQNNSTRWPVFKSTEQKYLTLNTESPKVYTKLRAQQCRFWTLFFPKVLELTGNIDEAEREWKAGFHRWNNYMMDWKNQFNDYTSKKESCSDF

Chain of AChE (O42275 24-633): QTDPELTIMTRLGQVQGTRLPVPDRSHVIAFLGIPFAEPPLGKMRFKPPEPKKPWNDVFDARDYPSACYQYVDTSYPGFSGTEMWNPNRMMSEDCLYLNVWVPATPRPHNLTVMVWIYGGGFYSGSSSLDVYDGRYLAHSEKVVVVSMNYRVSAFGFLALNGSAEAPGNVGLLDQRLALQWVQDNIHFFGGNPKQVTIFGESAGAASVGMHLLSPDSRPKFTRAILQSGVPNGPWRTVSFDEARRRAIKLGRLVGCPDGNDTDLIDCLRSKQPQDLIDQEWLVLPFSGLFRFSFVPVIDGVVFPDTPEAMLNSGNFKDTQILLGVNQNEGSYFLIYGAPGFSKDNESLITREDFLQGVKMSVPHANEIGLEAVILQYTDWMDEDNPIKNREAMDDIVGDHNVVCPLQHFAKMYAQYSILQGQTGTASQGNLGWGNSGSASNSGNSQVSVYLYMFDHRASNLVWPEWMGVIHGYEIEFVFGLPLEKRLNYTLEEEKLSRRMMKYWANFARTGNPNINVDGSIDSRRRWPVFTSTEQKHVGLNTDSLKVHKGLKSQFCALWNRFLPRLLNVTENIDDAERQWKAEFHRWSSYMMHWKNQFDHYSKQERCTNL

On to `COc1ccc2ccc3nnn(C(C)C)c3c2c1` [Compound 1, 1-isopropyl-8-methoxy-1H-naphtho[1,2-d][1–3]triazole], for which the IC50 in assay [1] was determined as 8.1 µM; in assay [2] it was 329 µM; in assay [3], 261 µM. Moreover, the results for the inhibition at 500 µM in assay [2] and in assay [3] were 58.1 ± 1.6% and 65.3 ± 0.7%, respectively.
For `C=CCCn1nnc2ccc3ccc(OC)cc3c21` [Compound 2, 1-(but-3-en-1-yl)-8-methoxy-1H-naphtho[1,2-d][1–3]triazole], the IC50 amounted to 10.4 µM in assay [1], 91.8 µM in assay [2] and 110 µM in assay [3]. Further, the inhibition at 500 µM in assay [2] came out at 77.9 ± 3.6%; in assay [3], 80.2 ± 0.7%.
As to `C=CCCCn1nnc2ccc3ccc(OC)cc3c21` [Compound 3, 8-methoxy-1-(pent-4-en-1-yl)-1H-naphtho[1,2-d][1–3]triazole], the values for the IC50 in assay [1], in assay [2] and in assay [3] were 12 µM, 51.3 µM and 53.5 µM, respectively. In addition, the inhibition at 250 µM came out at 64.8 ± 5.3% in assay [2] and 76.6 ± 1.8% in assay [3].
Take `COc1ccc2ccc3nnn(Cc4ccc(F)cc4)c3c2c1` [Compound 4, 1-(4-fluorobenzyl)-8-methoxy-1H-naphtho[1,2-d][1–3]triazole]: in assay [1], the IC50 was 19.1 µM. Also, the inhibition at 500 µM in assay [2] was determined as 35.1 ± 2%; in assay [3], 25 ± 0.5%.
Turning to `COc1ccc2ccc3nnn(Cc4cccc(F)c4)c3c2c1` [Compound 5, 1-(3-fluorobenzyl)-8-methoxy-1H-naphtho[1,2-d][1–3]triazole], the IC50 in assay [1] is above 100 µM; in assay [2], 55.5 µM. In addition, the inhibition at 250 µM was 80.8 ± 1.8% in assay [2] and 43.8 ± 1.8% in assay [3]. The “selectivity AChE over BChE” value in assay [2] is “Selective inhibition toward AChE”.
As to `COc1cccc(Cn2nnc3ccc4ccc(OC)cc4c32)c1` [Compound 6, 8-methoxy-1-(3-methoxybenzyl)-1H-naphtho[1,2-d][1–3]triazole], the IC50 in assay [1] was determined as 1.9 µM. In assay [2], the IC50 stood at 177 µM, the inhibition at 250 µM was found to be 78.6 ± 3.8% and the “selectivity AChE over BChE” value is listed as “Selective inhibition toward AChE”. The inhibition at 250 µM in assay [3] was found to be 47.8 ± 0.5%.
Take `OCCCCn1nnc2ccc3sccc3c21` [Compound 14]: in assay [1], the IC50 stood at 38.8 µM.
On to `c1cc2c(ccc3nnn(CCCN4CCOCC4)c32)s1` [Compound 16], for which the IC50 in assay [1] was above 100 µM.
Still for that read-out and setting: the result for `CCOC(=O)CCn1nnc2ccc3sccc3c21` [Compound 17] reads above 100 µM; that for `Fc1ccc(Cn2nnc3ccc4sccc4c32)cc1` [Compound 18], 27.7 µM.
For `COc1ccc(CCn2nnc3ccc4sccc4c32)cc1` [Compound 21], in assay [1], the IC50 was found to be 17 µM.
As to `c1csc(Cn2nnc3ccc4sccc4c32)c1` [Compound 22], in assay [1], the IC50 came to 16.1 µM.
As for `OCCCCn1nnc2c1-c1ccsc1CC2` [Compound 23], the IC50 in assay [1] was above 100 µM.
Consider `c1cc2c(s1)CCc1nnn(CCN3CCOCC3)c1-2` [Compound 24], for which the IC50 in assay [1] is above 100 µM.
Still for that read-out and setting: the result for `c1cc2c(s1)CCc1nnn(CCCN3CCOCC3)c1-2` [Compound 25] reads above 100 µM; that for `Cc1nc2c(ccc3sccc32)s1` [Compound 27], 12.2 µM.
Same read-out and setting: the value for `CC(C)c1nc2ccc3sccc3c2s1` [Compound 28] was above 100 µM; that for `Clc1nc2c(ccc3sccc32)s1` [Compound 29] was above 100 µM; that for `FC(F)(F)c1nc2c(ccc3sccc32)s1` [Compound 30] was above 100 µM.
Same read-out and setting: the result for `CC(=O)Nc1nc2c(ccc3sccc32)s1` [Compound 31] reads above 100 µM; that for `C[C@@H]1C[C@H]2[C@@H]3CCC4=CC(=O)C=C[C@]4(C)[C@@]3(F)[C@@H](O)C[C@]2(C)[C@@]1(O)C(=O)CO` [dexamethasone, reference compound], 0.007 µM.

What is called inhibition is the drop in the measured response relative to a control, in per cent.

Values taken from paper PMC10572743 (International Journal of Molecular Sciences, 2023).
